Assays:
Type in all cases: biochemical, Chromobacterium violaceum
L-Trp 2',3'-oxidase [1] = experiment: Specificity of the reaction (conversion of amino acid derivatives and indole compounds); conditions: for effect of conversion of substrates with free α-amino group on the enzyme: after a few minutes, absorbance at 320 nm rises then decreases
Description: No conversion could be observed for the aromatic amino acids: N-acetyl-L-phenylalaninamide and N-acetyl-L-tyrosinamide. The same is the case when the indole ring is substituted: 5-hydroxyl L-Trp, N-formyl L-Trp and for the isomers of the D series: D-tryptophan and N-acetyl-D-tryptophan.
This phenomenon is much more rapid when the α-carboxyl functional group is not substituted (L-Trp, comp. I), and results in the formation of an unstable imine (II) which is hydrolysed to give rise to the α-keto compounds (indole-3-pyruvic acid (III) and its amide homologue respectively)--FIG. 6--. It is therefore preferable to block the α-amino functional group so as to avoid any isomerisation phenomenon and to ensure greater stability of the dehydro compound.

L-Trp 2',3'-oxidase [2] = experiment: Kinetics of dehydrogenation of substrates by purified L-Trp 2',3'-oxidase (appearance of dehydro product at 330 nm); conditions: substrate of L-Trp 2',3'-oxidase, in the presence of catalase
Description: Measurements of the specific activity of the enzyme as well as all the kinetic experiments in the steady state, were performed under the standard conditions defined below:
Substrate: 1 mMN-acetyl-L-tryptophanamide (NATA)
Buffer: 50 mM succinate, pH 5.5
by directly monitoring the appearance of the dehydro product at 330 nm (FIG. 3). The specific activity (As) of fraction Q1 is calculated on the basis of a molar extinction coefficient at 330 nm of 18.8 mM^-1.cm^-1 determined in the laboratory (against ε330 =19.89 mM^-1.cm^-1 in the literature; TAKAI et al. mentioned above). NATA, which represents the smallest peptide chain possible, is used as reference substrate for the enzymatic reaction. The specific activity of the preparation (As) is estimated at 39.5±3.1 units for NATA (an enzymatic unit represents a mole of product formed per second per mole of heme).
The dehydrogenation of NATA was monitored as a function of the pH (pH 3-5, 6-8) at a temperature of 30° C. in 50 mM succinate buffer, pH 5.6. The reaction products are analysed and purified by reversed-phase HPLC and then freeze-dried and analysed by mass spectrometry (desorption by chemical ionisation: DCI). ΔNATA is the only product of the enzymatic reaction which is characterised by HPLC (single peak, γmax 333 nm) and by mass spectrophotometry (MH^+ =244).
The procedure is as in Example 1.7).
All the reactions were performed in the presence of catalase. In each case, the kinetic constants (Kcat and Km) are calculated so as to evaluate the efficiency of the enzyme for each type of substrate.

L-Trp 2',3'-oxidase [3] = experiment: Conversion of Trp in proteins by L-Trp 2',3'-oxidase in 24 hours; conditions: standard conditions, E/S ≈ 1/1000, values given as a guide
Description: (*): Values given as a guide, giving an idea of the conversion of Trp in
the proteins in 24 hours, under the standard conditions defined in Exampl
As specified above, the accessibility of the tryptophanyl residues, both with respect to the indolyl ring and with respect to the Cα and Cβ protons, plays a major role.

N[C@@H](Cc1c[nH]c2ccc(O)cc12)C(=O)O [5-hydroxyl L-Trp]
conversion by the enzyme (specificity of the reaction) (L-Trp 2',3'-oxidase [1]): No conversion

N[C@H](Cc1c[nH]c2ccccc12)C(=O)O [D-tryptophan]
conversion by the enzyme (specificity of the reaction) (L-Trp 2',3'-oxidase [1]): No conversion

N[C@@H](Cc1c[nH]c2ccccc12)C(=O)O [L-tryptophan]
effect of conversion of substrates with free α-amino group on the enzyme (L-Trp 2',3'-oxidase [1]): complete inhibition of the enzyme

NC(=O)[C@@H](N)Cc1c[nH]c2ccccc12 [L-tryptophanamide]
effect of conversion of substrates with free α-amino group on the enzyme (L-Trp 2',3'-oxidase [1]): complete inhibition of the enzyme

CC(=O)N[C@H](Cc1c[nH]c2ccccc12)C(=O)O [N-acetyl-D-tryptophan]
conversion by the enzyme (specificity of the reaction) (L-Trp 2',3'-oxidase [1]): No conversion

O=CN[C@@H](Cc1c[nH]c2ccccc12)C(=O)O [N-formyl L-Trp]
conversion by the enzyme (specificity of the reaction) (L-Trp 2',3'-oxidase [1]): No conversion

CSCC[C@H](NC(=O)[C@H](Cc1c[nH]c2ccccc12)NC(=O)CCNC(=O)OC(C)(C)C)C(=O)N[C@@H](CC(=O)O)C(=O)N[C@@H](Cc1ccccc1)C(N)=O [Pentagastrin]
Kcat/Km (L-Trp 2',3'-oxidase [2]): 10^6 M^-1.s^-1 | Kcat (L-Trp 2',3'-oxidase [2]; 30° C., 50 mM succinate buffer): 32 s⁻¹ | Km (L-Trp 2',3'-oxidase [2]; 30° C., 50 mM succinate buffer): 26 µM

O=C(O)CCc1c[nH]c2ccccc12 [indole-3-propionic acid]
conversion by the enzyme (specificity of the reaction) (L-Trp 2',3'-oxidase [1]): oxidised to indole-3-acrylic acid

NCCc1c[nH]c2ccccc12 [tryptamine]
conversion by the enzyme (specificity of the reaction) (L-Trp 2',3'-oxidase [1]): no reaction

β-Lactoglobulin: protein substrate, 162 residues, Trp19-Trp51, 32 kDa
conversion of Trp in the proteins (L-Trp 2',3'-oxidase [3]): 2 % of conversion

B1: Catalase: protein substrate, 506 residues, six Trp, 232 kDa (EC 1.11.1.6) (protein, UniProt P00432 2-527, looked up)
Catalase: ADNRDPASDQMKHWKEQRAAQKPDVLTTGGGNPVGDKLNSLTVGPRGPLLVQDVVFTDEMAHFDRERIPERVVHAKGAGAFGYFEVTHDITRYSKAKVFEHIGKRTPIAVRFSTVAGESGSADTVRDPRGFAVKFYTEDGNWDLVGNNTPIFFIRDALLFPSFIHSQKRNPQTHLKDPDMVWDFWSLRPESLHQVSFLFSDRGIPDGHRHMNGYGSHTFKLVNANGEAVYCKFHYKTDQGIKNLSVEDAARLAHEDPDYGLRDLFNAIATGNYPSWTLYIQVMTFSEAEIFPFNPFDLTKVWPHGDYPLIPVGKLVLNRNPVNYFAEVEQLAFDPSNMPPGIEPSPDKMLQGRLFAYPDTHRHRLGPNYLQIPVNCPYRARVANYQRDGPMCMMDNQGGAPNYYPNSFSAPEHQPSALEHRTHFSGDVQRFNSANDDNVTQVRTFYLKVLNEEQRKRLCENIAGHLKDAQLFIQKKAVKNFSDVHPEYGSRIQALLDKYNEEKPKNAVHTYVQHGSHLSAREKANL
conversion of Trp in the proteins (L-Trp 2',3'-oxidase [3]): 12 % of conversion

— patent US5356794A, “Purified enzymatic preparation derived from chromobacterium violaceum, method for preparing it and its use in the production of α, β-dehydrotryptophanyl-peptides” (priority 1991, dated 1994)
